From PubChem BioAssay (NCI)
Values joined by “and” are separate entries in the source; they are usually repeats but may differ in a detail not shown here. Identical values can stand only once.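 In this assay, cells in 96-well plates receive the compound at five concentrations for 48 hours. Endpoints are linearly interpolated between the surrounding concentrations. GI50 is the concentration that inhibits growth by half. TGI: concentration producing complete growth inhibition.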

Legend:
Assay in all cases: NCI anticancer screen, dose series, 48 h
[1] = test system: ACHN renal
[2] = test system: HL-60(TB) leukemia
[3] = test system: IGROV1 ovarian
[4] = test system: KM12 colon
[5] = test system: MOLT-4 leukemia
[6] = test system: NCI-H23 lung
[7] = test system: OVCAR-8 ovarian
[8] = test system: PC-3 prostate
[9] = test system: SK-OV-3 ovarian
[10] = test system: SW-620 colon

SMILES	GI50 [1]	TGI [1]	GI50 [2]	TGI [2]	GI50 [3]	TGI [3]	GI50 [4]	TGI [4]	GI50 [5]	TGI [5]	GI50 [6]	TGI [6]	GI50 [7]	TGI [7]	GI50 [8]	TGI [8]	GI50 [9]	TGI [9]	GI50 [10]	TGI [10]
COC1CC2C=C(C)/C=C/C=C/C(=O)NC(c3ccccc3)C/C=C/CCC(O)CC(=O)C2=C1O (stereo not drawn)	0.311 µM	1.14 µM	0.153 µM	0.406 µM	0.444 µM	1.84 µM	0.332 µM	1.26 µM	0.364 µM	1.4 µM	0.24 µM	1.11 µM	0.208 µM	0.904 µM	0.289 µM	1.16 µM	0.369 µM	1.46 µM	0.31 µM	1.36 µM
CCCCNN		> 100 µM		> 100 µM		> 100 µM		> 100 µM		> 100 µM		> 100 µM		> 100 µM		> 100 µM		> 100 µM		> 100 µM
OCCSCc1ccccc1		> 100 µM		> 100 µM		> 100 µM		> 100 µM		> 100 µM		> 100 µM		> 100 µM		> 100 µM		> 100 µM		> 100 µM
CCN1C(=S)N(CC)C2C1NC(=S)N2/N=C/C=C/c1ccccc1 (stereo not drawn)	4.87 µM	18.9 µM	0.387 µM	1.79 µM	2.15 µM	16.3 µM	1.21 µM	14.7 µM	1.02 µM	25.4 µM	4.49 µM	22 µM	4.47 µM	23.5 µM	1.52 µM	16 µM	2.4 µM	14.7 µM	0.803 µM	17.8 µM
CC/C=C\C[C@H](O)C/C=C1/C(=O)C=C[C@@H]1C/C=C\CCCC(=O)N(C)C	1.45 µM	3.43 µM	2.27 µM	13.6 µM	3.3 µM	11.2 µM	0.709 µM	4.03 µM	2.78 µM	12.8 µM	2 µM	5.74 µM	1.54 µM	11.4 µM	1.78 µM	4.47 µM	4.36 µM	15.6 µM	0.851 µM	6.16 µM
O=c1nc(Nc2cccc(Cl)c2)oc2cc(Cl)oc(=O)c12	5 µM	24.8 µM	10.8 µM	55.2 µM	5.13 µM	21.1 µM	11.4 µM	31.8 µM	3.24 µM	16.3 µM	7.15 µM	23.7 µM	7.06 µM	32.1 µM	10.8 µM	66.5 µM	17.2 µM	66.1 µM	10.9 µM	29.9 µM
C=C1C(=O)OC2CC1C(O)C/C(C)=C/CC/C(C)=C/C(O)CC2C (stereo not drawn)		3.75 µM		1.32 µM		9.3 µM		18.3 µM		3.11 µM		7.8 µM		4.72 µM		13.1 µM		26.5 µM		5.62 µM
CCOC(=O)C(Cc1c[nH]c2ccc(N(CCCl)CCCl)cc12)(NC(C)=O)C(=O)OCC	0.917 µM and 0.342 µM	17.3 µM and 8.2 µM	3.29 µM and 1.43 µM	12.1 µM and 9.89 µM	19.4 µM	102 µM	22.1 µM and 14.9 µM	83.5 µM and 36.3 µM	2.88 µM and 0.957 µM	13 µM and 26.2 µM	5.99 µM and 9.89 µM	31.2 µM and 64.8 µM	14.3 µM and 19.8 µM	45 µM	3.84 µM and 18.5 µM	48.1 µM and 332 µM	22.6 µM and 17.5 µM	99.4 µM and 131 µM	8.78 µM and 13.2 µM	93.6 µM and 46.8 µM
NNc1nc2ccccc2c(=O)n1NC(=O)C(=O)Nc1cccc(C(F)(F)F)c1		> 100 µM		> 100 µM		> 100 µM		> 100 µM		> 100 µM		> 100 µM		> 100 µM		> 100 µM		> 100 µM		> 100 µM
Cn1c(=O)c(Oc2ccccc2F)cc2cnc(NC3CCOCC3)nc21	> 25 µM	> 25 µM	> 25 µM	> 25 µM	> 25 µM	> 25 µM	> 25 µM	> 25 µM	> 25 µM	> 25 µM	> 25 µM	> 25 µM	> 25 µM	> 25 µM	> 25 µM	> 25 µM	> 25 µM	> 25 µM	> 25 µM	> 25 µM
N=C(N=C(N)N)N1CCN(c2ccncc2)CC1	> 1000 µM	> 1000 µM	> 1000 µM	> 1000 µM	> 1000 µM	> 1000 µM	> 1000 µM	> 1000 µM	> 1000 µM	> 1000 µM	> 1000 µM	> 1000 µM	483 µM	> 1000 µM	> 1000 µM	> 1000 µM	> 1000 µM	> 1000 µM	> 1000 µM	> 1000 µM
CCOC(=O)C(=Cc1ccccc1[N+](=O)[O-])C(=O)OCC	2.06 µM	4.31 µM	3.3 µM	45.5 µM	3.77 µM	15.4 µM	2.72 µM	10.3 µM	3.55 µM	34.5 µM	3.35 µM	13.9 µM	2.87 µM	11.3 µM	6.69 µM	34.7 µM	3.51 µM	12.7 µM	2.12 µM	4.85 µM
COCCOC(=O)NC(=O)Nc1ccc(/C(=N/O)c2ccc(Cl)cc2)cc1	0.186 µM	48.8 µM	0.0783 µM	0.137 µM	0.269 µM	> 69 µM	0.0996 µM	29.1 µM	0.109 µM	7.76 µM	0.221 µM	51.4 µM	0.188 µM	34.7 µM	0.141 µM	64.2 µM	0.118 µM	25.1 µM	0.109 µM	> 100 µM
Cc1cc(C)c(C[N+](C)(C)C)c(C)c1C	0.173 µM	> 100 µM	0.496 µM	> 24.7 µM	0.477 µM	> 95.7 µM	0.33 µM	24.2 µM	0.349 µM	> 52.9 µM	0.395 µM	12.3 µM	0.328 µM	> 41.6 µM	0.351 µM	> 67.2 µM	0.499 µM	11.2 µM	0.32 µM	> 100 µM
CC(C)c1ccc(C(=O)Nc2sc3c(c2C#N)CCC(=O)C3)cc1	0.33 µM	1.06 µM	0.413 µM		0.458 µM	13.1 µM	0.413 µM	7.83 µM	0.412 µM	> 100 µM	0.32 µM	9.57 µM	0.431 µM	> 100 µM	0.263 µM	> 23.7 µM	2.39 µM	8.15 µM	0.266 µM	1.67 µM
CN1CCCN(C)C1c1cc([N+](=O)[O-])ccc1O		64.3 µM		61.4 µM		> 100 µM		> 100 µM		59.8 µM		> 100 µM		> 100 µM		72.9 µM		> 100 µM		> 100 µM
ClC(Cl)c1nc(-c2cccnc2)n2nc(-c3ccccc3)cc2n1	1.37 µM	4.94 µM	2.18 µM	7.19 µM	1.63 µM	5.23 µM			0.984 µM	> 100 µM	0.62 µM	2.9 µM			1.71 µM	4.68 µM	1.78 µM	5.02 µM	0.666 µM	5.3 µM
CN(C)CCCN1c2nc3ccccc3cc2Sc2cc3ccccc3nc21	1.55 µM	2.94 µM	1.34 µM	2.79 µM			1.51 µM	2.88 µM	0.892 µM	2.31 µM	1.4 µM	2.86 µM			1.36 µM	2.74 µM	1.59 µM	3.01 µM	1.48 µM	2.88 µM
COc1cc2c3c(n(CCCNCCN)c(=O)c2cc1OC)-c1cc2c(cc1C3=O)OCO2	0.304 µM	1.01 µM	0.682 µM	3.66 µM	0.839 µM		1.48 µM	7.19 µM	< 0.0445 µM	0.081 µM	0.242 µM	1.14 µM	0.259 µM	6.73 µM	2.13 µM	14.9 µM	> 100 µM	> 100 µM	0.377 µM	3.9 µM
COC(=O)c1c2c(c(C)[n+]([O-])c1C)C(=O)C=C(NCc1ccc(F)c(F)c1)C2=O	0.572 µM	2.01 µM	0.302 µM	1.02 µM	0.36 µM	1.68 µM	0.28 µM	1.71 µM	0.588 µM	2.12 µM	0.498 µM	2.59 µM	0.291 µM	1.13 µM	0.279 µM	2.42 µM	1.86 µM	4.06 µM	0.254 µM	1.36 µM
NNc1cccc(/C=C/c2ccccc2)cc1=O	7.27 µM	> 100 µM	3.97 µM	> 100 µM	4.26 µM	46.1 µM	8.33 µM	> 100 µM	3.94 µM	> 100 µM			3.74 µM	> 100 µM	7.87 µM	> 100 µM	19.8 µM	> 100 µM	5.86 µM	> 100 µM
